Values after ≈ are worked out from the molar mass of the structure shown.
How the values were obtained:
[1] = system: Folsomia candida; conditions: chronic/long-term; reproduction
[2] = system: Oncorhynchus mykiss; conditions: chronic/long-term; duration: 28 days
[3] = system: Landoltia sp.; conditions: acute
[4] = system: Rattus norvegicus
[5] = system: Danio rerio; conditions: acute; duration: 96 hours; mortality
[6] = system: Daphnia magna
[7] = system: Canidae; conditions: chronic, duration: 1 years, oral, Dog Other
[8] = system: Apis mellifera; conditions: acute, mortality
[9] = system: Tagia sp.
[10] = system: Typhlodromus pyri; assay: LR50; higher = less toxic; conditions: not reported; mortality
[11] = system: Aphidius rhopalosiphi; assay: LR50; higher = less toxic; conditions: not reported; mortality

SMILES	NOEC [1] [mg/kg]	NOEC [2] [mg/L]	NOEC [3] [µg/L]	LD50 ([4]; acute, oral, mortality) [mg/kg]	NOAEL ([4]; reproduction developmental, reproduction) [mg/kg-day]	LC50 [5] [µg/mL]	LC50 ([6]; acute, duration: 96 hours, mortality) [µg/mL]	NOEC ([6]; chronic/long-term, duration: 21 days) [mg/L]	NOAEL [7] [mg/kg-day]	LOAEL ([7]; clinical signs) [mg/kg-day]	LD50 ([8]; dermal) [µg/piece]	LD50 ([8]; oral, unspecified) [µg/piece]	NOEC ([9]; acute) [mg/kg]	LC50 ([9]; acute, mortality) [mg/kg]	LR50 [10] [g/ha]	LR50 [11] [g/ha]	NOEC ([9]; chronic/long-term, duration: 56 days) [mg/kg]
CCc1cccc(C)c1N(COC(C)C)C(=O)C(=O)O	> 1000																
CCc1cccc(C)c1N(COC(C)C)C(=O)CCl [Propisochlor]		0.18	21	1920	10	0.93 (≈ 3.28 µM)	4.46 (≈ 15.7 µM)	0.93	5	5	> 100	> 111	62.5	248	1500	20300	
CCc1cccc(C)c1NC(=O)CS(=O)(=O)O [2-(2-ethyl-6-methylanilino)-2-oxoethane-1-sulfonic acid]	> 1000																3.5

Source: EPA's ToxValDB 9.5 (doi:10.2903/j.efsa.2010.1769)
